Ten compounds from patent US20250282799A1, “SUBSTITUTED PYRIDO[4,3-d]PYRIMIDINES AS KRAS MODULATORS” (Alterome Therapeutics, Inc., priority 2023, published 2025) can be followed below.

Experiment [1] has as its system KRAS G12V dependent lung adenocarcinoma cell line, NCI-H441. Kind of experiment: Cellular pERK (Thr202/Tyr204) FRET/HTRF assay. The settings on record: Homo sapiens, NCI-H441, cellular pERK (Thr202/Tyr204) HTRF, NCI-H441 cells. The experiment is classed as cell-based. The essentials: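 Adherent NCI-H441 cells, plated the previous night, receive test compound for one hour at 37 °C. They are then lysed with a buffer containing phosphatase inhibitors and incubated at room temperature with Eu3+-cryptate and d2 labelled anti-pERK antibodies. HTRF signal gives IC50 by curve fitting.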

The next experiment has as its target KRAS (G12D)/CRAF (Homo sapiens (Human), UniProt P01116, G12D). Kind of experiment: TR-FRET biochemical KRAS:CRAF protein:protein interaction assay, KRAS (G12D). To be noted: GMPPNP loaded Biotin-KRAS (G12D), FLAG CRAF RBD; read-out: TR-Fret_PPI KRAS (G12D)/CRAF IC50. The experiment is classed as binding. As to the method:
(§1) The effect of test compounds on KRAS and CRAF protein: protein interaction (PPI) was measured by time resolved fluorescence resonance energy transfer (TR-FRET) Ras binding domain (RBD) assay, which uses a signal generated through fluorescent resonance energy transfer between a donor and an acceptor molecule when in close proximity to each other. Interference from buffer, media, etc. is reduced by dual-wavelength detection; the energy pulse from the excitation source is followed by a time delay, which allows interfering short-lived fluorescence to decay (Degorce et al. 2009).
(§2) The KRAS: CRAF PPI assay can be utilized to identify KRAS ‘ON’ state inhibitors, as the KRAS protein is loaded with GMPPNP (a non-hydrolyzable GTP analog), which represents the active KRAS ‘ON’ state. FLAG-tagged CRAF RBD binding to the GMPPNP loaded biotin-tagged KRAS will result in a fluorescence energy transfer from the donor (Tb-anti-FLAG, emission 620 nm) to the acceptor (SA-XL665, emission 665 nm). Disruption of KRAS and CRAF binding will reduce the TR-FRET signal.
(§3) Test compound was dissolved in DMSO to create a 1 mM stock solution. A 45 μL volume of stock solution was transferred to a 384well polypropylene plate. A 3fold, 10point dilution was performed by transferring 15 μL of test compound solution into 30 μL of DMSO.
(§4) Assay buffer A was prepared with […] Hepes, pH7.3, 0.002% Tween 20, 0.1% BSA, […] NaCl, 5 mM MgCl2, and 10 uM GMP-PNP. 4× KRAS Solution was prepared with 80 nM of Biotin-KRAS (G12D/V), GMPPNP loaded or Biotin-KRAS (WT), GMPPNP loaded protein in assay buffer A. 4× Raf RBD Solution was prepared with 400 nM FLAG CRAF RBD in assay buffer A. 2× Detection Mixture was prepared with 2 nM Tb-anti-FLAG antibody and 10 nM and 10 nM SA-XL665 in assay buffer A.
(§5) A volume of 100 nL of 100× test compound working solution or DMSO vehicle control solution was dispensed to each well (duplicate for each concentration) of a 384-well ProxiPlate Plus assay plate. A volume of 2.5 μL of 4× KRAS Solution was added to each well of the assay plate for a final concentration of 20 nM Biotin-KRAS (G12D/V),GMPPNP loaded or 20 nM Biotin-KRAS (WT), GMPPNP. For low control, add 2.5 μL of assay buffer (no KRAS protein). Pre-incubate assay plate for 30 minutes at room temperature. Following pre-incubation of test compound or DMSO with Biotin-KRAS (G12D/V),GMPPNP loaded or Biotin-KRAS (WT),GMPPNP, a volume of 2.5 μL of 4× FLAG cRAF RBD Solution was added to each well of the assay plate for a final concentration of 100 nM FLAG CRAF RBD. The assay plate was subjected to centrifuge at 1000 rpm for 1 minute and pre-incubate assay plate for 150 minutes at room temperature. Following the pre-incubation with FLAG cRAF RBD, a volume of 5 μl of 2× Detection Mixture was added to each well of the assay plate for a final concentration of 1 nM Tb-anti-FLAG and 5 nM SA-XL665. The assay plate was centrifuged at 1000 rpm for 1 minute and incubated for 90 minutes at room temperature. TR-FRET signal was measured on a BioTek Synergy Neo2 microplate reader (excitation at 340 nm, emission at 665 nn and 620 nm).
(§6) TR-FRET ratios were calculated by dividing the acceptor emission value (665 nm) by the donor emission value (620 nm) for each sample.
(§7) Percent inhibition was calculated by multiplying the normalized TR-FRET ratio by 100, where TR-FRET ratio^HIGH was the TR-FRET ratio obtained from wells with 1% DMSO and complete reaction mixture, TR-FRET ratio^LOW was the ratio obtained from wells with 1% DMSO and reaction mixture without KRAS protein and TR-FRET ratio^SAMPLE was the TR-FRET ratio from wells with test compound and complete reaction mixture. The IC50 values were calculated from normalized TR-FRET ratios with the Levenberg-Marquardt 4 parameter fitting procedure.
(§8) This assay quantifies the interaction of a KRAS mutant protein (e.g., G12V) with the CRAF Ras-binding domain (RBD). […]
On the technique in general: In TR-FRET formats the signal depends on donor and acceptor labels being close together.

Another experiment deals with KRAS (G12V)/CRAF (Homo sapiens (Human), UniProt P01116, G12V). Put plainly: TR-FRET biochemical KRAS:CRAF protein:protein interaction assay, KRAS (G12V). The settings on record: GMPPNP loaded Biotin-KRAS (G12V), FLAG CRAF RBD; read-out: TR-Fret_PPI KRAS (G12V)/CRAF IC50. The format is binding. As to the method:
as §1, §2, §3, §4, §5, §6, §7, §8

SMILES strings stand for the structures. Where only a bound is given, the exact number is not on record here.

KRAS (G12V)/CRAF, sequence (P01116-2 other isoform, or with tags, fused parts or gaps G12V): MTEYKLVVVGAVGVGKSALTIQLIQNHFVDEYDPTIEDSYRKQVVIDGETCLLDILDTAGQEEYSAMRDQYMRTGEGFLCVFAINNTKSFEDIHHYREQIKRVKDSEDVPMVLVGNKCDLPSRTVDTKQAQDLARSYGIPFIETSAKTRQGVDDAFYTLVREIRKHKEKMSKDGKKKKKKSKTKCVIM
KRAS (G12D)/CRAF, sequence (P01116-2 other isoform, or with tags, fused parts or gaps G12D): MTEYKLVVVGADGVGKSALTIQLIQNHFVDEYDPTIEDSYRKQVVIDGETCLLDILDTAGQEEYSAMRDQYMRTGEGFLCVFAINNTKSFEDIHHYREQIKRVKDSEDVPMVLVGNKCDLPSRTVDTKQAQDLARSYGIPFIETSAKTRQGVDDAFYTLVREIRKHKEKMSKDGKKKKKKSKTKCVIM

`[2H]C([2H])(Oc1nc(N2CC=CC[C@H]3[C@H](F)[C@H]32)c2cnc(-c3cc(N)cc4cc(F)c(F)c(C#C)c34)c(F)c2n1)[C@@]12CCCN1C[C@H](F)C2` [Example 137, 5-Ethynyl-6,7-difluoro-4-(8-fluoro-4-((1S,7R,8S)-8-fluoro-2-azabicyclo[5.1.0]oct-4-en-2-yl)-2-(((2R,7aS)-2-fluorotetrahydro-1H-pyrrolizin-7a(5H)-yl)methoxy-d2)pyrido[4,3-d]pyrimidin-7-yl)naphthalen-2-amine]: the IC50 in experiment [1] was below 50 nM; on KRAS (G12D)/CRAF, 27.4 nM; on KRAS (G12V)/CRAF, 155 nM.

On to `[2H]C([2H])(Oc1nc(N2CC=CC[C@@H]3[C@@H](F)[C@@H]32)c2cnc(-c3cc(N)cc4cc(F)c(F)c(C#C)c34)c(F)c2n1)[C@@]12CCCN1C[C@H](F)C2` [Example 138, 5-ethynyl-6,7-difluoro-4-(8-fluoro-4-((1R,7S,8R)-8-fluoro-2-azabicyclo[5.1.0]oct-4-en-2-yl)-2-(((2R,7aS)-2-fluorotetrahydro-1H-pyrrolizin-7a(5H)-yl)methoxy-d2)pyrido[4,3-d]pyrimidin-7-yl)naphthalen-2-amine], for which the IC50 is 500 to 10000 nM in experiment [1], at least 10000 nM at KRAS (G12D)/CRAF and at least 10000 nM on KRAS (G12V)/CRAF.

Consider `[2H]C([2H])(Oc1nc(N2CCOC[C@@H]3[C@@H](F)[C@@H]32)c2cnc(-c3cc(N)cc4ccc(F)c(C#C)c34)c(F)c2n1)[C@@]12CCCN1C[C@H](F)C2` [Example 221, 5-ethynyl-6-fluoro-4-(8-fluoro-4-((1R,7R,8R)-8-fluoro-5-oxa-2-azabicyclo[5.1.0]octan-2-yl)-2-(((2R,7aS)-2-fluorotetrahydro-1H-pyrrolizin-7a(5H)-yl)methoxy-d2)pyrido[4,3-d]pyrimidin-7-yl)naphthalen-2-amine], for which the IC50 in experiment [1] was 500 to 10000 nM; on KRAS (G12D)/CRAF it was above 3000 nM; at KRAS (G12V)/CRAF, above 3000 nM.

Regarding `[2H]C([2H])(Oc1nc(N2CCOC[C@H]3[C@H](F)[C@H]32)c2c(OC)nc(-c3cc(N)cc4ccc(F)c(C#C)c34)c(F)c2n1)[C@@]12CCCN1C[C@H](F)C2` [Example 222, 5-Ethynyl-6-fluoro-4-(8-fluoro-4-((1S,7S,8S)-8-fluoro-5-oxa-2-azabicyclo[5.1.0]octan-2-yl)-2-(((2R,7aS)-2-fluorotetrahydro-1H-pyrrolizin-7a(5H)-yl)methoxy-d2)-5-methoxypyrido[4,3-d]pyrimidin-7-yl)naphthalen-2-amine], the IC50 in experiment [1] is below 50 nM; on KRAS (G12D)/CRAF, 11.7 nM; on KRAS (G12V)/CRAF, 53.7 nM.

For the compound `[2H]C([2H])(Oc1nc(N2CCOC[C@@H]3[C@@H](F)[C@@H]32)c2c(OC)nc(-c3cc(N)cc4ccc(F)c(C#C)c34)c(F)c2n1)[C@@]12CCCN1C[C@H](F)C2` [Example 223, 5-ethynyl-6-fluoro-4-(8-fluoro-4-((1R,7R,8R)-8-fluoro-5-oxa-2-azabicyclo[5.1.0]octan-2-yl)-2-(((2R,7aS)-2-fluorotetrahydro-1H-pyrrolizin-7a(5H)-yl)methoxy-d2)-5-methoxypyrido[4,3-d]pyrimidin-7-yl)naphthalen-2-amine], the values for the IC50 (in experiment [1]; at KRAS (G12D)/CRAF; on KRAS (G12V)/CRAF) were 500 to 10000 nM, 3000 nM and 3000 nM, respectively.

For `[2H]C([2H])(Oc1nc(N2CCOC[C@@H]3[C@H](F)[C@@H]32)c2cnc(-c3cc(N)cc4ccc(F)c(C#C)c34)c(F)c2n1)[C@@]12CCCN1C[C@H](F)C2` [Example 224, 5-ethynyl-6-fluoro-4-(8-fluoro-4-((1R,7R,8S)-8-fluoro-5-oxa-2-azabicyclo[5.1.0]octan-2-yl)-2-(((2R,7aS)-2-fluorotetrahydro-1H-pyrrolizin-7a(5H)-yl)methoxy-d2)pyrido[4,3-d]pyrimidin-7-yl)naphthalen-2-amine], the IC50 in experiment [1] is 500 to 10000 nM; at KRAS (G12D)/CRAF, above 3000 nM; at KRAS (G12V)/CRAF it was above 3000 nM.

Regarding `[2H]C([2H])(Oc1nc(N2CCOC[C@H]3[C@@H](F)[C@H]32)c2cnc(-c3cc(N)cc4ccc(F)c(C#C)c34)c(F)c2n1)[C@@]12CCCN1C[C@H](F)C2` [Example 225, 5-ethynyl-6-fluoro-4-(8-fluoro-4-((1S,7S,8R)-8-fluoro-5-oxa-2-azabicyclo[5.1.0]octan-2-yl)-2-(((2R,7aS)-2-fluorotetrahydro-1H-pyrrolizin-7a(5H)-yl)methoxy-d2)pyrido[4,3-d]pyrimidin-7-yl)naphthalen-2-amine], the figures for the IC50 (in experiment [1]; at KRAS (G12D)/CRAF; on KRAS (G12V)/CRAF) were below 50 nM, 264 nM and 2910 nM, respectively.

Consider `[2H]C([2H])(Oc1nc(N2CCOC[C@H]3[C@@H](Cl)[C@H]32)c2cnc(-c3cc(N)cc4ccc(F)c(C#C)c34)c(F)c2n1)[C@@]12CCCN1C[C@H](F)C2` [Example 247, 4-(4-((1S,7S,8R)-8-chloro-5-oxa-2-azabicyclo[5.1.0]octan-2-yl)-8-fluoro-2-(((2R,7aS)-2-fluorotetrahydro-1H-pyrrolizin-7a(5H)-yl)methoxy-d2)pyrido[4,3-d]pyrimidin-7-yl)-5-ethynyl-6-fluoronaphthalen-2-amine], for which the values for the IC50 (in experiment [1]; on KRAS (G12D)/CRAF; at KRAS (G12V)/CRAF) were 50 to 500 nM, 1390 nM and 3000 nM, respectively.

On to `[2H]C([2H])(Oc1nc(N2CCOC[C@H]3[C@H](Cl)[C@H]32)c2cnc(-c3cc(N)cc4ccc(F)c(C#C)c34)c(F)c2n1)[C@@]12CCCN1C[C@H](F)C2` [Example 248, 4-(4-((1S,7S,8S)-8-Chloro-5-oxa-2-azabicyclo[5.1.0]octan-2-yl)-8-fluoro-2-(((2R,7aS)-2-fluorotetrahydro-1H-pyrrolizin-7a(5H)-yl)methoxy-d2)pyrido[4,3-d]pyrimidin-7-yl)-5-ethynyl-6-fluoronaphthalen-2-amine], for which the IC50 in experiment [1] was below 50 nM; on KRAS (G12D)/CRAF, 8.25 nM; on KRAS (G12V)/CRAF, 52.6 nM.

Take `[2H]C([2H])(Oc1nc(N2CCOC[C@@H]3[C@@H](Cl)[C@@H]32)c2cnc(-c3cc(N)cc4ccc(F)c(C#C)c34)c(F)c2n1)[C@@]12CCCN1C[C@H](F)C2` [Example 249, 4-(4-((1R,7R,8R)-8-chloro-5-oxa-2-azabicyclo[5.1.0]octan-2-yl)-8-fluoro-2-(((2R,7aS)-2-fluorotetrahydro-1H-pyrrolizin-7a(5H)-yl)methoxy-d2)pyrido[4,3-d]pyrimidin-7-yl)-5-ethynyl-6-fluoronaphthalen-2-amine]: the IC50 in experiment [1] is below 50 nM; on KRAS (G12D)/CRAF it was 648 nM; at KRAS (G12V)/CRAF, 3000 nM.
